Source: patent US8392127B2, “Methods and gene expression signature for assessing growth factor signaling pathway regulation status” (Merck Sharp & Dohme Corp., priority 2008, dated 2013)
“Also recorded” adds a separate entry of the source. Like-named read-outs stand apart in the source and are kept apart here.

Key:
HCT116 = assay: Sensitivity to cell killing by cMET inhibitor MK-2461; type: cell-based
HCT15 (or AGS) = assay: as above; type: cell-based
A549 = assay: as above; type: cell-based
HT29 = assay: as above; type: cell-based
Colo205 = assay: as above; type: cell-based
EBC-1 = assay: as above; type: cell-based
GTL-16 = assay: as above; type: cell-based
[1] = tested on: growth factor signaling pathway signature in EBC-1; assay: Growth factor signaling pathway signature score after MK-2461 in cell lines (microarray); type: cell-based; details: 1 μM, 6 and 12 hours post-treatment
Procedure: (§1) Ten cell lines with alternations of the PI3K/MAPK pathway components were identified (see Table 6), including two cell lines with amplification of cMET (EBC-1 and GTL-16). […] To assess the regulation of the growth factor signaling pathway signature in these cells, these cell lines were treated with vehicle or 1 μM MK-2461. The cell lines were profiled at 6 and 12 hours post-treatment. Duplicate cultures were seeded in 6-well plates for each treatment group. Cell were ˜70% confluent at time of collection. Experiments were performed in duplicate.
(§2) RNA was harvested from both vehicle-treated and compound treated cells, and regulation of the growth factor signaling pathway by MK-2461 was assessed by comparing gene expression profiles of MK-2461 treated cells to vehicle treated cells. For every probe on the microarray, the log(10) ratio of expression in the MK-2461 treated samples relative to the cell line-matched vehicle treated samples was calculated. The growth factor signaling pathway signature score was calculated as the mean log(10) ratio of the genes in the “up” arm of the signature (see Table 5a) minus the mean log(10) ratio of the genes in the “down” arm of the signature (see Table 5b).

[2] = tested on: growth factor signaling pathway signature in GTL-16; assay: as above; type: cell-based; details: 1 μM, 6 and 12 hours post-treatment
Procedure: as §1, §2

EBC-1 tumor cells = assay: EBC-1 xenograft tumor growth; type: in vivo, HRLN female nu/nu mice
Procedure: (§3) HRLN female nu/nu mice were subcutaneously implanted with 5×10^6 EBC-1 tumor cells. Tumors were allowed to grow an average size of 450-500 mg before treatment was administered. Xenografts were treated with vehicle or 11, 34, or 112 mpk of MK-2461 (n=4 for each treatment group). […] Treatment was administered PO BID for 7 days. Tumors were harvested 2 hours after the final dose, as this was the estimated time to achieve Cmax.

[3] = tested on: growth factor signaling pathway signature in EBC-1 xenografts; assay: Growth factor signaling pathway signature score in EBC-1 xenografts (microarray); type: in vivo, HRLN female nu/nu mice; details: 112 mpk PO BID for 7 days; tumors harvested 2 hours after the final dose
Procedure: as §3
RNA was harvested from both vehicle-treated and compound-treated samples. Regulation of the growth factor signaling pathway signature by MK-2461 was assessed by comparing gene expression profiles of MK-2461 treated samples to the mean gene expression profile of the 4 vehicle treated samples. The log(10) ratio of expression in the MK-2461 treated samples relative to the mean of the vehicle treated samples was calculated for every probe on the microarray. The growth factor signaling pathway signature score was calculated as the mean log(10) ratio of the genes in the “up” arm of the signature (see Table 5a) minus the mean log(10) ratio of the genes in the “down” arm of the signature (see Table 5b).

CSF-1729 = assay: Patient-derived tumor xenograft growth inhibition (T/C); type: in vivo, NMRI female nu/nu mice; details: 500 μg/mouse ip once weekly
Text: (§4) NMRI female nu/nu mice were subcutaneously implanted with patient-derived tumor xenografts: lung adenocarcinoma LXFA 526, LXFA 629, LXFA 677, LXFA 749 and LXFA 1012; squamous cell lung carcinoma LXFE, 211, LXFE 397, LXFE 409 and LXFE 1422; small cell lung cancer LXFS 538, LXFS 573 and LXFS 615; colorectal carcinoma CXF 94LX, CXF 158, CXF 280, CXF 975, CXF 1103 and CXF 1729; renal cell carcinoma RXF 393, RXF 423, RXF 631 and RXF 1220; gastric cancer GXF 97, GXF 251 and GXF 281; ovarian cancer OVXF 550, OVXF 899, OVXF 1023, OVXF 1353 and OVXF 1544 (Oncotest GmbH, Freiburg, Germany). All tumor xenografts were derived from surgical specimen from human patients and directly transplanted into nude mice for propagation. Tumor xenografts were passaged in nude mice until establishment of a stable growth pattern. Master stocks of early passage xenografts were frozen in liquid nitrogen. A particular master stock batch is typically only used for about 20 further passages. Tumor fragments were obtained from xenografts in serial passage in nude mice. After removal of tumors from donor mice, they were cut into fragments (1-2 mm diameter) and placed RPMI 1640 culture medium until subcutaneous implantation. Recipient mice were anesthetized by inhalation of isoflurane. Tumor fragments (1-2 per mouse) were transplanted subcutaneously into the backs of recipient mice. Animals carrying at least one tumor of appropriate size (mean tumor diameter 6-8 mm, minimum acceptable tumor diameter 5 mm) were considered for randomization into treatment and vehicle control groups.
(§5) MK-0646 IGF1R monoclonal antibody (U.S. Pat. No. 7,241,444) was diluted to a final dosing concentration of 2 mg/mL with 20 mM—L Histidine, 150 mM NaCl, 0.5% PS—80 w/w pH 6.5 at ratio of 1:5.65. The diluted treatment solution was administered at an application volume of 250 μl/mouse for the dose level of 500 μg/mouse. The control vehicle was 20 mM-L Histidine, 150 mM NaCl, 0.5% PS-80 w/w, pH6.5. Vehicle was administered at 250 μl/mouse. IGF1R monoclonal antibody and control vehicle were injected intraperitoneally. Test and control mice were injected once a week on the same days. The number of injections ranged from 2 to 7, depending on the duration of the experiment. Experiments were terminated when one of the limits set by the German animal regulations was met.
(§6) Each experiment consisted of a vehicle control group (Group 1) receiving 20 mM-L Histidine, 150 mM NaCl, 0.5% PS-80 w/w, pH6.5 at 250 μL/mouse ip once weekly and one group treated with IGF-1R at 500 μg/mouse ip once weekly (Group 2). For sample collection purposes each experiment also comprised two groups (Groups 3 and 4) receiving a single therapy either with the vehicle or with IGF-1R at the same dose levels. According to the study protocol the group size in the efficacy groups (Groups 1 and 2) was 7 mice while the sample collection groups (Group 3 and 4) contained 3 nude mice each. In the experiments with CXF 1103 and RXF 631 bearing mice the efficacy groups contained 8 mice and group size in the efficacy groups of the experiment with LXFE 211 bearing nude mice was 9. […]
(§7) Relative volumes of individual tumors (RTVs) for Day x were calculated by dividing the individual tumor volume on Day X (Tx) by the individual volume of the same tumor on Day 0 (T0) multiplied by 100%.
(§8) [formula] Group tumor volumes were expressed as the median RTV of all tumors in a group (group median RTV). […]

CSF-280 = assay: as above; type: in vivo, NMRI female nu/nu mice; details: 500 μg/mouse ip once weekly
Text: as §4, §5, §6, §7, §8

CSF-94LX = assay: as above; type: in vivo, NMRI female nu/nu mice; details: 500 μg/mouse ip once weekly
Text: as §4, §5, §6, §7, §8

LXFA-629 = assay: as above; type: in vivo, NMRI female nu/nu mice; details: 500 μg/mouse ip once weekly
Text: as §4, §5, §6, §7, §8

OVXF-899 = assay: as above; type: in vivo, NMRI female nu/nu mice; details: 500 μg/mouse ip once weekly
Text: as §4, §5, §6, §7, §8

MAXF-713 = assay: as above; type: in vivo, NMRI female nu/nu mice; details: 500 μg/mouse ip once weekly
SXF-1186 = assay: as above; type: in vivo, NMRI female nu/nu mice; details: 500 μg/mouse ip once weekly
[4] = tested on: growth factor signaling pathway signature in LXFA-629; assay: Growth factor signaling pathway signature score post/pre-dose ratio in xenografts; type: in vivo, NMRI female nu/nu mice; details: 24 hours after a single treatment, 500 μg/mouse ip
Procedure: (§9) Animals of Groups 3 and 4 were sacrificed for sample collection when the tumors had volumes between 400 and 600 mm^3 and 24 hours after a single treatment with either the control vehicle (Group 3) or IGF1R (Group 4). Tumors were cut into two parts, snap frozen in liquid nitrogen and stored at −80° C. RNA was harvested from both vehicle-treated and MK0646-treated samples as previously described for hybridization to DNA oligonucleotide arrays.
(§10) Regulation of the growth factor signaling pathway signature by MK-0646 was assessed by comparing mean gene expression profiles of MK0646 treated samples for each xenograft to the mean gene expression profile of the vehicle treated samples. The log(10) ratio of expression in the MK-0646 treated samples relative to the vehicle treated samples was calculated for every probe on the microarray. The growth factor signaling pathway signature score was calculated as the mean log(10) ratio of the genes in the “up” arm of the signature (see Table 5a) minus the mean log(10) ratio of the genes in the “down” arm of the signature (see Table 5b). A post/pre-dose ratio of the growth factor signaling pathway signature score was then calculated and compared to the tumor inhibition T/C ratio for each xenograft (see FIG. 34).

[5] = tested on: growth factor signaling pathway signature in MAXF-713; assay: as above; type: in vivo, NMRI female nu/nu mice; details: 24 hours after a single treatment, 500 μg/mouse ip
Procedure: as §9, §10

Q: Which results are given for `CN(C[C@@H]1COCCO1)S(=O)(=O)Nc1ccc2ccc3ncc(-c4cnn(C)c4)cc3c(=O)c2c1` [MK-2461, N-[(2R)-1,4-dioxan-2-ylmethyl]-N-methyl-N′-[3-(1-methyl-1H-pyrazol-4-yl)-5-oxo-5H-benzo[4,5]cyclohepta[1,2-b]pyridin-7-yl]sulfamide]?
A: sensitive to MK2461 (HCT116): no; sensitive to MK2461 (HCT15 (or AGS)): no; sensitive to MK2461 (A549): no; sensitive to MK2461 (HT29): no; sensitive to MK2461 (Colo205): no; sensitive to MK2461 (EBC-1): sensitive to cell killing; sensitive to MK2461 (EBC-1; listed as MK2461): ✓; sensitive to MK2461 (GTL-16): sensitive to cell killing; sensitive to MK2461 (GTL-16; listed as MK2461): ✓; inhibition of the growth factor signaling pathway signature [1]: Inhibition of the growth factor signaling pathway signature was observed; also recorded: inhibition of the growth factor signaling pathway was only observed; inhibition of the growth factor signaling pathway signature [2]: Inhibition of the growth factor signaling pathway signature was observed; also recorded: inhibition of the growth factor signaling pathway was only observed; effect on tumor growth (EBC-1 tumor cells; 11 mpk PO BID): no effect on tumor growth; effect on tumor growth (EBC-1 tumor cells; 34 mpk PO BID): no effect on tumor growth; efficacy in xenografts (EBC-1 tumor cells; 112 mpk): only dose that resulted in efficacy; tumor growth inhibition compared to vehicle treatment (EBC-1 tumor cells; 112 mpk PO BID): approximately 30%; inhibition of the growth factor signaling pathway signature in xenografts [3]: Inhibition of the growth factor signaling pathway signature was only observed

Q: “MK-0646: IGF1R monoclonal antibody (U.S. Pat. No. 7,241,444)” was tested. Which “tumor inhibition (T/C ratio)” value (CSF-1729) did it give?
A: moderate response

Q: What about the “tumor inhibition (T/C ratio)” value (CSF-280) of the same molecule?
A: moderate response

Q: And the “tumor inhibition (T/C ratio)” value (CSF-94LX)?
A: strong tumor inhibition

Q: What about the “tumor inhibition (T/C ratio)” value (LXFA-629) of the same molecule?
A: strong tumor inhibition; also recorded: most tumor inhibition

Q: And the “tumor inhibition (T/C ratio)” value (OVXF-899)?
A: strong tumor inhibition

Q: What about the “tumor inhibition (T/C ratio)” value (MAXF-713) of the same molecule?
A: strong tumor inhibition; also recorded: most tumor inhibition

Q: And the “tumor inhibition (T/C ratio)” value (SXF-1186)?
A: moderate response

Q: And the “growth factor signaling score post/pre-dose ratio” value [4]?
A: low

Q: And the “growth factor signaling score post/pre-dose ratio” value [5]?
A: low
